From ChEMBL document CHEMBL1759972, “Phenoxyacetic acids as PPARδ partial agonists: synthesis, optimization, and in vivo efficacy” (Bioorg Med Chem Lett, 2011)
pEC50, pIC50: −log10 of the molar value. ≈ marks a conversion by molar mass, not a printed value. Calls of active or inactive are those of the source. The rule behind the calls is not given here.

Columns and labels:
[1] = molecular target: T1, Peroxisome proliferator-activated receptor alpha (Homo sapiens, UniProt Q07869); assay: Displacement of [3H]GW 2433 from human PPARalpha by scintillation proximity assay
T1 sequence (Q07869 whole entry): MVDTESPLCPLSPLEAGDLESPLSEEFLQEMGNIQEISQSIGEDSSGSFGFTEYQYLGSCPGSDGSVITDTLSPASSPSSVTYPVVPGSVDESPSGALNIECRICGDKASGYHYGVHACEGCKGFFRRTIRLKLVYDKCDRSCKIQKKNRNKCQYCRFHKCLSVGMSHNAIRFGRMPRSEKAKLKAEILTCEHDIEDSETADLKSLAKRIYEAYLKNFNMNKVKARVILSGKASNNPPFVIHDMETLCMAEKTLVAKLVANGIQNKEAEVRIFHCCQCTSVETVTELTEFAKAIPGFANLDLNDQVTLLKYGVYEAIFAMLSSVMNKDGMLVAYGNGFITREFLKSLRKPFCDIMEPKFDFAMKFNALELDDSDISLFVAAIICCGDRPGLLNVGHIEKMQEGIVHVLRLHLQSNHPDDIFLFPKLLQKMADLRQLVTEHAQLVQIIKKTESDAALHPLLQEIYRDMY

[2] = molecular target: T2, Peroxisome proliferator-activated receptor gamma (Homo sapiens, UniProt P37231)
T2 sequence (P37231 whole entry): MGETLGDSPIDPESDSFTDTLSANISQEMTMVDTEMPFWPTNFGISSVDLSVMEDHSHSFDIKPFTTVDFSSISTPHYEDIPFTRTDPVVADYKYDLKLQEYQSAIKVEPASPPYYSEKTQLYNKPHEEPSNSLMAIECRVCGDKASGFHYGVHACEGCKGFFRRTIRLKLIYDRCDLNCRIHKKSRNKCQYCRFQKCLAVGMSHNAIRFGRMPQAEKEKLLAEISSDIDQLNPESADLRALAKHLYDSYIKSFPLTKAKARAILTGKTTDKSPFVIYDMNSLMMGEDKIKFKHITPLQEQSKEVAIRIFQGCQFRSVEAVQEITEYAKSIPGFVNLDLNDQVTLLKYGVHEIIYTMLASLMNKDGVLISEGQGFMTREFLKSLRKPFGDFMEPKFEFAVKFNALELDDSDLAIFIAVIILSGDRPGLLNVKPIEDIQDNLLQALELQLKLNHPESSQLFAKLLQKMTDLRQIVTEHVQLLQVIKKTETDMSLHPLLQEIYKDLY
Description: Displacement of [3H]GW 2433 from human PPARgamma by scintillation proximity assay

[3] = molecular target: T3, Peroxisome proliferator-activated receptor delta (Homo sapiens, UniProt Q03181); assay: Induction of human PPARdelta-mediated CPT1a gene expression in human skeletal muscle; format: tissue-based, Muscle tissue
T3 sequence (Q03181 whole entry): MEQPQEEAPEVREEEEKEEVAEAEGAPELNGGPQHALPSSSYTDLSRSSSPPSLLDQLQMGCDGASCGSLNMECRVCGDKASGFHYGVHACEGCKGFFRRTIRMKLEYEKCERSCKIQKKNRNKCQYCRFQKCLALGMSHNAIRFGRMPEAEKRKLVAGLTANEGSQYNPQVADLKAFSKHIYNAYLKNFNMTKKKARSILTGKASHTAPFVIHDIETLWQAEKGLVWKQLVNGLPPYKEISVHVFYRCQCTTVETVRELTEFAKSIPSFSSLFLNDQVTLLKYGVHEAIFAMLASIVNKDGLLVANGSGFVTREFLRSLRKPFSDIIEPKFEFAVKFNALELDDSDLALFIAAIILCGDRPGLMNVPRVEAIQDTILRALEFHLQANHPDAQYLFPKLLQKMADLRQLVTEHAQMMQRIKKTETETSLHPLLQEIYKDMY

[4] = molecular target: T3, Peroxisome proliferator-activated receptor delta; assay: Induction of human PPARdelta-mediated PDK4 gene expression in human skeletal muscle; format: tissue-based, Muscle tissue
[5] = Aqueous solubility of the compound; format: physicochemical
[6] = Permeability across artificial membrane; format: ADME; details: PAMPA; read-out: permeability
Cytochrome P450 1A2 = molecular target: T4, Cytochrome P450 1A2 (Homo sapiens, UniProt P05177); assay: Inhibition of CYP1A2; format: ADME
T4 sequence (P05177 whole entry): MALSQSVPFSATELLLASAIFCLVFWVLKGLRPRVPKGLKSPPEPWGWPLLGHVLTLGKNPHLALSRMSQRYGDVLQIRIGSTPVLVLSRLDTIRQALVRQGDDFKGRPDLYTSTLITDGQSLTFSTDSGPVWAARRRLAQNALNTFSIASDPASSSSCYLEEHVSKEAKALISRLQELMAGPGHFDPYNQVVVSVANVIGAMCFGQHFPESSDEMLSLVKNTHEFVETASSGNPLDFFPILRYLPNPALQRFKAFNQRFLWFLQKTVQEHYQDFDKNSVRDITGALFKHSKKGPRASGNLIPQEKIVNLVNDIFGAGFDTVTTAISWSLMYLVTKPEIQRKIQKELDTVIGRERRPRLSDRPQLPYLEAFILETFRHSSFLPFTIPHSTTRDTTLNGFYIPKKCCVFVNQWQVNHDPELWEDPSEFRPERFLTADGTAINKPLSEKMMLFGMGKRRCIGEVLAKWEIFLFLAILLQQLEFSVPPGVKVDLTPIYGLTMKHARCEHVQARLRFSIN

Cytochrome P450 2C19 = Cytochrome P450 2C19 (Homo sapiens, UniProt P33261); assay: Inhibition of CYP2C19; format: ADME
Sequence of Cytochrome P450 2C19 (P33261 whole entry): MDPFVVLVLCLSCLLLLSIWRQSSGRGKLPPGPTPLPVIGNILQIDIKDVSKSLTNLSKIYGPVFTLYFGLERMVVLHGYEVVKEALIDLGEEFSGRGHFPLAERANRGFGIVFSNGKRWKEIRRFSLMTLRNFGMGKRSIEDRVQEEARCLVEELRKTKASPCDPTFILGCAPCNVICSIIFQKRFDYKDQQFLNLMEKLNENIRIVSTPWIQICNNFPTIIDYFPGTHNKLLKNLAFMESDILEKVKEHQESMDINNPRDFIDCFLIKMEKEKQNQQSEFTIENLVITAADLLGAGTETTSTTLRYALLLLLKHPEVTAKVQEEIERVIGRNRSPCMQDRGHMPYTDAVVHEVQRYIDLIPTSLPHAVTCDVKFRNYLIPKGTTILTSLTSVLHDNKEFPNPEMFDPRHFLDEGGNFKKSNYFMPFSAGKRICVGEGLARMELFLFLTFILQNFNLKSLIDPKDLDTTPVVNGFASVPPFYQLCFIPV

Cytochrome P450 2D6 = Cytochrome P450 2D6 (Homo sapiens, UniProt P10635); assay: Inhibition of CYP2D6; format: ADME
Sequence of Cytochrome P450 2D6 (P10635 whole entry): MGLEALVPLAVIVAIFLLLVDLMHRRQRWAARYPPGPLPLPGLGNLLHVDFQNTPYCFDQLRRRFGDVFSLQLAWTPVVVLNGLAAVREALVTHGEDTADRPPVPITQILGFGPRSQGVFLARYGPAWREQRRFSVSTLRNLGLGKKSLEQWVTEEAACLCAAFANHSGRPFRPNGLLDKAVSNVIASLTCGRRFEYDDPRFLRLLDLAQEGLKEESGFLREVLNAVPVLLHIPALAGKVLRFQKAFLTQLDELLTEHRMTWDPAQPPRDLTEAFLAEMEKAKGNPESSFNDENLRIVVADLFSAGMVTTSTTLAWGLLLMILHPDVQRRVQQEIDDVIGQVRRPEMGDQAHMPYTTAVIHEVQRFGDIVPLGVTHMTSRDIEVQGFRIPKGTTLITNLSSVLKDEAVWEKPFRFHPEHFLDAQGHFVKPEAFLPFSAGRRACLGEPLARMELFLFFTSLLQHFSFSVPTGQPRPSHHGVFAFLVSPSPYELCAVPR

Cytochrome P450 3A4 = Cytochrome P450 3A4 (Homo sapiens, UniProt P08684); assay: Inhibition of CYP3A4; format: ADME
Sequence of Cytochrome P450 3A4 (P08684 whole entry): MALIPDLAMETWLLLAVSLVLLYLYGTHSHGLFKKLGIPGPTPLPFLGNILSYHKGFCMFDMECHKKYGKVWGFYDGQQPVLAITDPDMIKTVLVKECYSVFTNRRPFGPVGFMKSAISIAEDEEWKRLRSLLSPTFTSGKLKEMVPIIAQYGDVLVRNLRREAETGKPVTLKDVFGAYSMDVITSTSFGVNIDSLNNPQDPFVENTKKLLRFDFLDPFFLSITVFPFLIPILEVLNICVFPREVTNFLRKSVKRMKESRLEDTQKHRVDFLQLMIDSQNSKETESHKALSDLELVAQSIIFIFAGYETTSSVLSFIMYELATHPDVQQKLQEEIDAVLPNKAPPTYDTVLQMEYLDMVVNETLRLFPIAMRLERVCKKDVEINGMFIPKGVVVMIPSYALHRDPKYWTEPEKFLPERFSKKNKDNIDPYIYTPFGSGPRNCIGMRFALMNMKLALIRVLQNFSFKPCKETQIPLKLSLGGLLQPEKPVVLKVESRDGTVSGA

Cytochrome P450 2C9 = Cytochrome P450 2C9 (Homo sapiens, UniProt P11712); assay: Inhibition of CYP2C9; format: ADME
Sequence of Cytochrome P450 2C9 (P11712 whole entry): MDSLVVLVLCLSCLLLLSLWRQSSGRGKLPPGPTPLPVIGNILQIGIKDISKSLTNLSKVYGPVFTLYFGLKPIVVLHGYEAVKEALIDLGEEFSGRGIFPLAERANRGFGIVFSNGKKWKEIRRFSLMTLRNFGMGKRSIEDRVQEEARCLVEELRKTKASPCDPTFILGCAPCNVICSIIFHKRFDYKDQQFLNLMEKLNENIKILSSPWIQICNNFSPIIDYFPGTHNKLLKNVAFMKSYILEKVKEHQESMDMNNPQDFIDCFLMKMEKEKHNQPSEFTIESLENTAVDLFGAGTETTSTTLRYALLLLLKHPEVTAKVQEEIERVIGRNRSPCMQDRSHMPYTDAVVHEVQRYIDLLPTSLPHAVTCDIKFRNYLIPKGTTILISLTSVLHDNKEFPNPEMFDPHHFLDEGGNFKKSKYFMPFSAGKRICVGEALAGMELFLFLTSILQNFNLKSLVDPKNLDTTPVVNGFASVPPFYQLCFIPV

Liver microsomes = assay: Intrinsic clearance in human liver microsomes; format: ADME, Microsome
[7] = AUC (0 to infinity) in CD mouse at 10 mg/kg, po; format: ADME, organism-based; set-up: time infinity, dose 10 mg/kg, route oral; details: plasma
[8] = Half life in CD mouse at 10 mg/kg, po; format: ADME, organism-based; set-up: dose 10 mg/kg, route oral; details: in vivo
Mus musculus [9] = assay: Antidiabetic activity in fasting insulin-resistant ob/ob mouse assessed as decrease in body weight gain at 100 mg/kg, po administered once daily for 15 days; format: functional, organism-based; set-up: dose 100 mg/kg
Mus musculus [10] = assay: Antidiabetic activity in po dosed fasting insulin-resistant ob/ob mouse assessed as improvement in glucose sensitivity administered once daily for 15 days measured on day 12 of dosing by OGTT method; format: functional, organism-based
Mus musculus [11] = assay: Antidiabetic activity in fasting insulin-resistant ob/ob mouse assessed as improvement in glucose sensitivity at 30 mg/kg, po administered once daily for 15 days measured on day 12 of dosing by OGTT method; format: functional, organism-based; set-up: dose 30 mg/kg
[12] = molecular target: T3, Peroxisome proliferator-activated receptor delta
Description: Displacement of [3H]GW 2433 from human PPARdelta by scintillation proximity assay

[13] = molecular target: T3, Peroxisome proliferator-activated receptor delta; remark: listed apart in the source
Description: Partial agonist activity at human PPARdelta expressed in african green monkey CV1 cells transfected with Gal4 assessed as beta-galactosidase activity by transactivation assay

Mus musculus [14] = assay: Dose normalized AUC (0 to 24 hrs) in CD mouse at 10 mg/kg, po; format: ADME, organism-based; set-up: time < 24 hr, dose 10 mg/kg, route oral; details: in vivo

pIC50 [1]	pIC50 [2]	pEC50 [3]	pEC50 [4]	solubility [5] [µM]	Papp [6] [×10⁻⁶ cm/s]	pIC50 (Cytochrome P450 1A2)	pIC50 (Cytochrome P450 2C19)	pIC50 (Cytochrome P450 2D6)	pIC50 (Cytochrome P450 3A4)	pIC50 (Cytochrome P450 2C9)	CL (Liver microsomes) [µL/min/mg]	AUC(0-inf) [7] [ng·h/mL]	half-life [8] [h]	pIC50 [12]	pEC50 [13]	AUC (Mus musculus [14]) [ng·h/mL/mg/kg]	Compound	Activity (Mus musculus [9])	Activity (Mus musculus [10])	Activity (Mus musculus [11])
5.00	5.20	8.00	7.60	140 (≈ 84 µg/mL)	25	< 5.50	< 5.50	< 5.50	< 5.50	6.10	28	5870	5.4	7.80	8.60		CCCCN(c1cccc(-c2ccc(OC(F)(F)F)cc2)c1Cl)S(=O)(=O)c1ccc(OC(C)C(=O)O)c(C)c1C (configuration not stated)	Active	Dose-dependent effect	Active
5.10	5.20	8.40	8.00	140 (≈ 81.8 µg/mL)	25	< 5.50	< 5.50	< 5.50	< 5.50	6.10	18	2480	4.3	8.20	8.60		CCCCN(c1cccc(-c2ccc(C(F)(F)F)cc2)c1Cl)S(=O)(=O)c1ccc(OC(C)C(=O)O)c(C)c1C (configuration not stated)	Active	Dose-dependent effect	Active
4.70														7.30	7.60	575	CCCCN(c1cccc(-c2ccc(Cl)cc2)c1C)S(=O)(=O)c1ccc(OC(C)C(=O)O)c(C)c1C (configuration not stated)			
